Measured values as given in EP1344776A1, “5- 2-hydroxy-3-[1-(3-trifluoromethylphenyl)-cyclopropyl]-propionylamino -phtalide and 6- 2-hydroxy-3-[1-(3-trifluoromethylphenyl)-cyclopropyl]-propionylamino -4-methyl-2,3-benzoxazin-1-one derivatives with progesterone receptor modulating activity for use in fertility control, hormone replacement …” (Schering Aktiengesellschaft, priority 2002, dated 2003).

What was measured:
hPR-A = assay: PR-A transcription assay (MTV-LUC reporter, SK-N-MC cells); type: cell-based, human; conditions: 10^-7 mol/l test compound relative to R5020 10^-7 mol/l, 24 hours, 0.1 µM
Method: The method for screening for PR isoform-specific progestins according to the present invention is carried out with first and second SK-N-MC cells stably transfected with a plasmid expressing the hPR-A (first cells) or the hPR-B (second cells) and the LUC reporter gene linked to the hormonally responsive MTV promoter.
For the transcription assay, the cells are seeded onto 96-well dishes (2x 10^4 cells/dish) and cultured in a medium as described above, with the exception that the FCS is replaced by a 3 % charcoal stripped FCS. 48 hours later, cells are contacted with prediluted test compounds. For determination of agonistic activity, cells are cultured in the presence of increasing concentrations (10^-6 to 10^-11 mol/l) of test progestins. As a positive control for reporter gene induction cells are treated with 10^-6 to 10^-11 mol/l R5020 (promegestone). As a negative control for reporter gene induction, cells are cultured in 1 % ethanol.
Evaluation of the response gives the efficacy [%], and evaluation of the EC50 values gives the potency [nM]. Calculation of the agonistic activity is conducted as follows:
The LUC activity [%] for the measured data points is calculated as follows: relative LUC activity [%] = 100 x((response 10)^-6 (to 10)^-11 mol/l test compound - CO)/(CI - CO) [formula] wherein CI = 100 % stimulation (R5020, 10^-7 mol/l) and CO = 0 % stimulation (ethanol, 1 %).
Thus, the efficacy [%] is calculated according to: efficacy [%] = 100 x((response 10)^-7 mol/l test compound - CO)/(CI - CO) [formula]
The potency [nM], i.e. the EC50, is determined graphically.

rat mammary epithelium = assay: Bioassay on proliferating/differentiating effects in the rat mammary epithelium (whole mount staining); type: in vivo
Method: The object of this test is to evaluate the effect of progestins on the development of the mammary gland, in particular on the formation of terminal end buds in the mammary gland in estrogen primed rats.
Premature female rats (Wistar Han, SPF) are ovariectomized at the age of 21 days, 4 to 6 days before treatment start. The animals are treated for 6 days with standard estrogen (estrone, 70 µg/kg) and the test progestin (application volume: 0.1 ml/50g body weight; vehicle: benzylbenzoate/castor oil (1+4 v/v); subcutaneous). Control groups are e.g.: vehicle, estrone without progestin, estradiol together with a known progestin, e.g. R5020 (promegestone). After the 6-day treatment the animals are killed with carbon dioxide.
For the whole mount staining, animals are shaved in the left abdominal inguinal mammary region, which is cut from the body together with the skin. For the histological/immunohistochemical analyses the right abdominal inguinal mammary gland is cut from the body together with the connective tissue adhered thereto and fixed in 3.7 % formalin in PBS (phosphate buffer saline; without Ca^2+/Mg^2+).
The preparations are fixed over night in alcohol-formalin according to the method of Tellyesniczky (see below). Then the mammary gland tissue and subcutis adhered thereto are stripped from the cutis and the preparations are again fixed over night. The further steps are as follows: ethanol 70 %: 1.5 hours; acetone: 3 × 1.5 hours; acetone: over night; isopropanol: 1.5 hours; ethanol 96 %: 2 hours; hematoxylin-iron: 3 hours; VE water: first rinse the preparations and then 2 × 0.5 hours; ethanol 70 %: over night; ethanol 80 %: 1.5 hours; ethanol 96 %: 1.5 hours; isopropanol: 1.5 hours. The preparations are then moved to petri dishes and left in toluene for approximately 1 hour, i.e. until they have stopped to swim up. Then the preparations are treated with cedarwood oil (Merck, no. 1.06965). The incubation times above are minimum times and can be extended. In particular, incubation in ethanol 70 % after fixation can be extended to at least 2.5 weeks.
Preparation of the solutions necessary for the whole mount staining: • a) Alcohol-formalin according to Tellyesniczky: formaldehyde 37%: 81.8 ml, ethanol 70 %: 1636 ml, glacial acetic acid (to be added shortly before use): 81.8 ml (total: 1800 ml). • b) Hematoxylin mother solution: Hematoxylin (Merck, no. 1.15938): 10 g, ethanol 96 %: 100 ml. The solution must stand for 48 hours at 37 °C before use. It can be kept in a dark place for almost unlimited time. • c) Hematoxylin-iron solution for use: hematoxylin mother solution (filtered): 15.2 ml, ethanol 96 %: 1374 ml, FeCl3 x 6 H2O (s. 4): 91.1 ml, 1 mol/l HCl: 220 ml (total: 1700 ml); adjustment to a pH of 1.25 with 2mol/l NaOH. • d) FeCl3 x 6 H2O solution: FeCl3 x 6 H2O (Merck, no. 1.03943): 1.07 g, VE water: 90.2 ml, HCl: 37 %: 0.92 ml (total: 91.1 ml).
By means of a 40-fold magnification, the terminal end buds near the nipple in direction of the tail are counted. The area to be investigated should be about 1.8 mm^2. For well-differentiated preparations this area may be reduced, with at least 250 buds to be counted. After counting, the number of end buds per 1 mm^2 is calculated. […]

[1] = target: T1, estrogen receptor-α (ERα) (Homo sapiens, UniProt P03372); assay: Estrogen receptor-α binding; conditions: in vitro
T1 sequence (P03372 1-595): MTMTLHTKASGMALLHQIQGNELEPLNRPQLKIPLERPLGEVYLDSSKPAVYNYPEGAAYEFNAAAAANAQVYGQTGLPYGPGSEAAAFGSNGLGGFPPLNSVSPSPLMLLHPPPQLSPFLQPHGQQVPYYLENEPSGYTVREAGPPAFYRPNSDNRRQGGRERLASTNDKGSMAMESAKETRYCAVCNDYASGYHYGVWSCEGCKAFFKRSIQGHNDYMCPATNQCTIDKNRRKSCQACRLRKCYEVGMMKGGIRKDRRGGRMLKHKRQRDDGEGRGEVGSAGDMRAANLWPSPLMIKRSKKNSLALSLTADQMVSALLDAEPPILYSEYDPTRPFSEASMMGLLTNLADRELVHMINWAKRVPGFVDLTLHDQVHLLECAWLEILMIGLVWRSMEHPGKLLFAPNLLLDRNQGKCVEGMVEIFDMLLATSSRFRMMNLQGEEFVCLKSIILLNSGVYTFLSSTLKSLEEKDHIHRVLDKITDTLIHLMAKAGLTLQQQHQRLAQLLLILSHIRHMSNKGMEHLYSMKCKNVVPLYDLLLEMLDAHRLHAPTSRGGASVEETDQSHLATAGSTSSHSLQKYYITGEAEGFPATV

affinity for the estrogen receptor-α (ERα) [1]: negligible
Compound: O=C1OCc2cc(NC(=O)C(O)(CC3(c4cc(C(F)(F)F)ccc4F)CC3)C(F)(F)F)ccc21 (single isomer, unassigned; (+)) [((+)-1), (+)-5-{2-hydroxy-3-[1-(2-fluoro-5-trifluoromethylphenyl)-cyclopropyl]-2-trifluoromethyl-propionylamino}-phthalide]
PR-A agonism efficacy (hPR-A): 88.7%
Mammary gland, whole mount staining (rat) [equi-efficient dose], factor compared to R5020 (rat mammary epithelium; median of three independent tests): ca. 1
effects at the mammary gland (rat mammary epithelium; rat, amount suitable for maintaining pregnancy): no effects at the mammary gland are observed
Mammary gland, whole mount staining (rat) [equi-efficient dose] (rat mammary epithelium; terminal end buds, dose pair with 0.1 mg/kg R5020, independent test): 0.03 mg/kg
